Paper PMC3582512, “Application of a Novel Microtitre Plate-Based Assay for the Discovery of New Inhibitors of DNA Gyrase and DNA Topoisomerase VI” (PLoS ONE, 2013)
“Also recorded” adds a separate entry of the source.

Experiments:
M. mazei topo VI [1] = target: T1, M. mazei topo VI (Methanosarcina mazei, UniProt Q8PUB7+Q8PUB8); assay: Agarose gel-based DNA relaxation assay; format: biochemical; conditions: for IC50: gel relaxation assay, 1 unit (50 nM) topo VI, read-out: Approx. IC50 against M. mazei topo VI; for Mechanism (Topo VI): summary of mechanistic tests with M. mazei and S. shibatae topo VI
T1 construct: His tag; made in house
Procedure: (§1) The agarose gel-based assay was conducted as previously described, [44], [62]. In brief, topoisomerases were incubated with 0.5 µg of plasmid and the desired concentration of compound for 30 min at 37°C (for DNA gyrase and M. mazei topo VI) or 5 min at 75°C (for S. shibatae topo VI), in a total volume of 30 µL. […] Reactions were stopped by the addition of a loading buffer containing EDTA and the drug extracted by vortexing with either chloroform or aqueous butanol as required. In the case of M. mazei topo VI, it was necessary to include SDS in the loading buffer, at a final concentration of 1%. Samples were loaded onto a 1% agarose gel, run for the appropriate length of time and stained with ethidium bromide before visualisation on a UV transilluminator.

S. shibatae topo VI = target: T2, S. shibatae topo VI (Saccharolobus shibatae, UniProt O05207+O05208); assay: Protection from ADPNP-induced, S. shibatae topo VI-mediated DNA cleavage; format: biochemical, Sulfolobus shibatae
T2 construct: gift from Danielle Gadelle (University of Paris XI, Orsay)
Procedure: (§2) Assays to detect the stabilisation of cleavage complexes were identical to the protocol for topoisomerase activity detailed above, except as follows. Cleavage experiments with DNA gyrase were carried out in the absence of ATP and spermidine and 30 µL reactions were stopped with 3 µL 10% SDS and incubated with 3 µL 1 mg/mL proteinase K solution at 37°C for 1 h. For cleavage complex protection assays with suramin, the reaction buffer was modified to contain 4 mM CaCl2 rather than MgCl2.

E. coli DNA gyrase [2] = target: T3, E. coli DNA gyrase (Escherichia coli, UniProt P0AES4+P0AES6); assay: DNA triplex-based microtitre plate screen, gyrase supercoiling; format: biochemical; conditions: 25 µM compound, duplicate
T3 construct: made in house
Procedure: The triplex-based assay was conducted as previously described [45]–[47]. In brief, oligonucleotide TFO1 was immobilised onto a streptavidin-coated microtitre plate. Excess oligonucleotide was removed by washing with buffer. […] The reaction was stopped by the addition of a low pH, high salt buffer and triplex formation was allowed to occur for 30 min at room temperature. The DNA retained on the plate was stained with SYBR Gold (Sigma) dye and the fluorescence readings for each well read in a SpectraMax Gemini fluorimeter (Molecular Devices).
Twelve plates were screened in duplicate over three days manually using a multichannel pipette as previously described. […] Each plate contained 16 control reactions: eight positive for enzyme activity, which contained enzyme but no library compounds, and eight negative for enzyme activity, which lacked both enzyme and library compounds. All controls were carried out with 5% DMSO.

E. coli DNA gyrase [3] = target: T3, E. coli DNA gyrase; conditions: not studied further in this paper; cited from earlier work
E. coli strain NR698 = assay: Bacterial growth inhibition, membrane-permeable strain; format: cell-based, Escherichia coli; conditions: liquid and solid media
Procedure: (§3) For E. coli work, 10 mL cultures of E. coli MG1655 or NR698 were grown overnight at 37°C in LB medium. A 100 µL sample was then added to 10 mL of LB medium containing the desired concentration of compound. The culture was then allowed to grow at 37°C for 5 h and its OD600 measured every hour. For M. smegmatis, a 50 mL culture was grown for 48 h in Middlebrooks 7H11 medium at 37°C. A 100 µL sample was then added to 10 mL of Middlebrooks 7H11 containing the desired concentration of compound. The culture was then allowed to grow at 37°C for 9 h and its OD600 measured every three hours. For colony counting experiments M. smegmatis was grown for 48 h in 50 mL of Middlebrooks 7H9 medium at 37°C. A 100 µL sample was then added to 10 mL of Middlebrooks 7H9 medium containing the desired concentration test compound and allowed to grow at 37°C overnight. After 16 h, 20 µL samples were taken from these cultures and diluted 1 in 10,000 with Middlebrooks 7H9 medium. Petri dishes containing Middlebrooks 7H11 agar were prepared and 100 µL of each diluted culture was spread out. The plates were subsequently stored at 4°C. This was repeated every three hours for six hours, after which the plates were transferred to 37°C for 48 h. The numbers of colonies for each time point were counted manually.

E. coli DNA gyrase [4] = target: T3, E. coli DNA gyrase; assay: Gel-based gyrase-mediated DNA cleavage assay; format: biochemical; conditions: absence of ATP
Procedure: as §2

M. smegmatis mc^2155 = assay: Bacterial growth inhibition and colony counting; format: cell-based, Mycobacterium smegmatis
Procedure: as §3

E. coli DNA gyrase [5] = target: T3, E. coli DNA gyrase; assay: Agarose gel-based DNA supercoiling assay; format: biochemical
Procedure: as §1

[6] = target: T4, M. mazei DNA topoisomerase VI (Methanosarcina mazei, UniProt Q8PUB7+Q8PUB8); assay: DNA triplex-based microtitre plate screen, topo VI relaxation; format: biochemical; conditions: 25 µM compound, duplicate
T4 construct: His tag; made in house
Procedure: The triplex-based assay was conducted as previously described [45]–[47]. In brief, oligonucleotide TFO1 was immobilised onto a streptavidin-coated microtitre plate. Excess oligonucleotide was removed by washing with buffer. Topoisomerase reactions were carried out in a 30 μL reaction volume containing 1–2 units topoisomerase and 1 μg relaxed or negatively supercoiled pNO1 under the published reaction conditions, [47]; gyrase supercoiling: 35 mM Tris•HCl (pH 7.5), 24 mM KCl, 4 mM MgCl2, 2 mM DTT, 1.8 mM spermidine, 1 mM ATP, 6.5% (w/v) glycerol, 0.1 mg/mL bovine serum albumin; topo VI relaxation: 20 mM bis-tris propane (pH 6.5), 100 mM potassium glutamate, 10 mM MgCl2, 1 mM DTT, 1 mM ATP. […] The DNA retained on the plate was stained with SYBR Gold (Sigma) dye and the fluorescence readings for each well read in a SpectraMax Gemini fluorimeter (Molecular Devices).
Twelve plates were screened in duplicate over three days manually using a multichannel pipette as previously described. […] Once the data had been collected from the screen, the fluorescence signals for the duplicates were averaged and converted into percentage inhibition using the positive and negative controls. […] To analyse the degree of separation between a negative and positive result the Z' factor [51] for the assay was calculated from the data for the control reactions (Equation 1). […]

E. coli MG1655 = assay: Bacterial growth inhibition; format: cell-based, Escherichia coli; conditions: liquid and solid media
Procedure: as §3

M. mazei topo VI [7] = target: T1, M. mazei topo VI; assay: Native gel shift assay, topo VI binding to 147 bp DNA fragment
Procedure: In order to test the effects of hit compounds upon DNA binding by topoisomerases, samples of enzyme and drug were prepared under the following conditions in a final volume of 10 μL: 1 nM 147 bp linear fragment of DNA derived from pBR322, [82] 50 mM Tris•HCl (pH 7.5), 100 mM KCl, 5 mM MgCl2, 2 mM DTT, 10% w/v glycerol. Samples were incubated for 30 min at room temperature before being run on a 5% (29:1) Protogel acrylamide (National Diagnostics) gel in 90 mM Tris·Borate, 5 mM MgCl2 at 150 V for 45 min. The DNA was stained by soaking in 2 µg/mL ethidium bromide for 10 min and visualised under UV light.

T3 sequence (P0AES4 whole entry, one chain of several): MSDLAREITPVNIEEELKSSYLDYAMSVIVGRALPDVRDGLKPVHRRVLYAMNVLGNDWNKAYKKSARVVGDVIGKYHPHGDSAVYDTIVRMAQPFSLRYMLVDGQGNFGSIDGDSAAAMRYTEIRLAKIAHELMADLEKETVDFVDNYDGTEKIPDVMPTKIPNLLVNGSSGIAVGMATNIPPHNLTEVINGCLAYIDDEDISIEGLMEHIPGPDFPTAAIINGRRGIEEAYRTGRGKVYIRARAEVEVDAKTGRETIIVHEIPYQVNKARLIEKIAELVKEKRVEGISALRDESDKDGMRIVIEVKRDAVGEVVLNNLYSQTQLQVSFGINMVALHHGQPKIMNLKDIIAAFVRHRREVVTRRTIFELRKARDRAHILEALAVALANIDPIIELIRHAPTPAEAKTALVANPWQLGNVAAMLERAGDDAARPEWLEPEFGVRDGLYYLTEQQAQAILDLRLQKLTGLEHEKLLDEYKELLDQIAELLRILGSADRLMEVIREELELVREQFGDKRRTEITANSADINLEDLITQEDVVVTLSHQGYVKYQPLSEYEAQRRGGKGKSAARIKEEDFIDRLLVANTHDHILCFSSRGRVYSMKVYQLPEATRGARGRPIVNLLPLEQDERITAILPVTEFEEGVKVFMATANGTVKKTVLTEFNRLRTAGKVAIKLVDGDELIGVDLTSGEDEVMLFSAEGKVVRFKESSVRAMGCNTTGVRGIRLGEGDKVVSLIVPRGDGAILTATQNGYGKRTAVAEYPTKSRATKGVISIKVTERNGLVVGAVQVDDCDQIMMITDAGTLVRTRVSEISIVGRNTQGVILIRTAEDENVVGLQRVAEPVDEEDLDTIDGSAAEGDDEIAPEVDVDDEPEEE
T2 sequence (O05207 whole entry): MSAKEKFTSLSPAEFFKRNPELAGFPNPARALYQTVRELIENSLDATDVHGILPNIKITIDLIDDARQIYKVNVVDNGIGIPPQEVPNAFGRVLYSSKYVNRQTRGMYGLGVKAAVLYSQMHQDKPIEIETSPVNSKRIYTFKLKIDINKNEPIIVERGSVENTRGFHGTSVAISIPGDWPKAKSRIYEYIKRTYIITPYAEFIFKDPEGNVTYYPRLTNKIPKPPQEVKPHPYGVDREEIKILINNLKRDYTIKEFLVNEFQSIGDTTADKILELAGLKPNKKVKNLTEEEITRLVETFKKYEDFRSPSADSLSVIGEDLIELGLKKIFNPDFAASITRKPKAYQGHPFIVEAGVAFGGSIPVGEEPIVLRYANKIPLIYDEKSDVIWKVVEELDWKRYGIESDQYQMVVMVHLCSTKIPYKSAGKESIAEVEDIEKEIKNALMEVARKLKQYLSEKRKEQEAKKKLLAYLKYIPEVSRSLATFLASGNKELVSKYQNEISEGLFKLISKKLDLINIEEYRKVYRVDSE
T2 sequence (O05208 whole entry): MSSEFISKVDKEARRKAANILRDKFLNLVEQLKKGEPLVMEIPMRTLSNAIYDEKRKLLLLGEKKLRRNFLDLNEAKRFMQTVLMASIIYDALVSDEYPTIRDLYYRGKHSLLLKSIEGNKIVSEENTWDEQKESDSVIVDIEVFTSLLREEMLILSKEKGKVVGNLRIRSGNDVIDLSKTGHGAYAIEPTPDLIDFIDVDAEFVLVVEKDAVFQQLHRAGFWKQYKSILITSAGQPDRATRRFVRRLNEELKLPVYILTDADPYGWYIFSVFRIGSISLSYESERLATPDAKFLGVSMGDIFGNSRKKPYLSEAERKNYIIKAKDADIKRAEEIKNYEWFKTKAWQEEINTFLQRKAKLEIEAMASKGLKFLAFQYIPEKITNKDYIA
T1 sequence (Q8PUB8 whole entry): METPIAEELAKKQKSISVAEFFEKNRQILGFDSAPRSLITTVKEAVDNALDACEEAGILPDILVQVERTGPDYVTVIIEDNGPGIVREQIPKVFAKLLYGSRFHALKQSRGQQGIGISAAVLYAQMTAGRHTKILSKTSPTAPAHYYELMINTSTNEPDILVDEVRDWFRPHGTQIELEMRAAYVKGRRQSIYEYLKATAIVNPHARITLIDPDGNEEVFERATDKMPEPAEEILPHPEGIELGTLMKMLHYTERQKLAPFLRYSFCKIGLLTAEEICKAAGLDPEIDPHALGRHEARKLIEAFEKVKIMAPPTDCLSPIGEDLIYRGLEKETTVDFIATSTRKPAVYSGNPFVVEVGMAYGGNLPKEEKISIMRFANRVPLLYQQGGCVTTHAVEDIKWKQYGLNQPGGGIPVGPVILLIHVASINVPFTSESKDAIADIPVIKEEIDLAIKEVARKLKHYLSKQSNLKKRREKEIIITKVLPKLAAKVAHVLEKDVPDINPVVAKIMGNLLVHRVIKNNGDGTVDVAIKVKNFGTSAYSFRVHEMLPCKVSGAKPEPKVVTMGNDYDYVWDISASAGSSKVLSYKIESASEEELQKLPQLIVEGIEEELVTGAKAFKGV
T1 sequence (Q8PUB7 whole entry): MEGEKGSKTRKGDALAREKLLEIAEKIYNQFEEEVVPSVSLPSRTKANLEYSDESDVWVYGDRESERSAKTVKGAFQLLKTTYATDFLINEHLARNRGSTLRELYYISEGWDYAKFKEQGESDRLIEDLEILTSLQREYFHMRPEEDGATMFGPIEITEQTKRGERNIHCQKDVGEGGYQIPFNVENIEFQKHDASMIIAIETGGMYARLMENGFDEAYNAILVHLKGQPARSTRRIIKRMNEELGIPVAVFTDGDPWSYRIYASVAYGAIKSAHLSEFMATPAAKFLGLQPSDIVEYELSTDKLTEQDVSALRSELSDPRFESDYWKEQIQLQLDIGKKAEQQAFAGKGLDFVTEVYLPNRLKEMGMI
T4 sequence (Q8PUB8 whole entry): as the sequence (Q8PUB8 whole entry) above
T4 sequence (Q8PUB7 whole entry): as the sequence (Q8PUB7 whole entry) above

Compound: Nc1c2ccccc2nc2ccccc12 [9-Aminoacridne, 9-aminoacridine]
- Inhibition in gel-based relaxation assay (hit validation) (M. mazei topo VI [1]): validated as hits
- IC50 (M. mazei topo VI [1]): 6 µM
- Mechanism (Topo VI) (M. mazei topo VI [1]): Prevents DNA cleavage
- Prevention of ADPNP-induced DNA cleavage by S. shibatae topo VI (S. shibatae topo VI): appeared to prevent ADPNP-induced cleavage

Compound: C[n+]1c2cc(N)ccc2cc2ccc(N)cc21 [Acriflavinium]
- Outcome in gyrase screen (hit threshold 25% inhibition) (E. coli DNA gyrase [2]): scored over the hit threshold
- Mechanism (DNA gyrase), already characterised inhibitors (E. coli DNA gyrase [3]): ATPase inhibitor

Compound: O=C(O)c1cn(C2CC2)c2cc(N3CCNCC3)c(F)cc2c1=O [Ciprofloxacin]
- Mechanism (DNA gyrase), already characterised inhibitors (E. coli DNA gyrase [3]): Fluoroquinolone cleavage-complex stabiliser

Compound: COc1c(N2CCNC(C)C2)c(F)cc2c(=O)c(C(=O)O)cn(C3CC3)c12 (stereo not drawn) [Gatifloxacin]
- Mechanism (DNA gyrase), already characterised inhibitors (E. coli DNA gyrase [3]): Fluoroquinolone cleavage-complex stabiliser

Compound: C[C@H]1COc2c(N3CCN(C)CC3)c(F)cc3c(=O)c(C(=O)O)cn1c23 [Levofloxacin]
- Mechanism (DNA gyrase), already characterised inhibitors (E. coli DNA gyrase [3]): Fluoroquinolone cleavage-complex stabiliser

Compound: CCn1cc(C(=O)O)c(=O)c2cc(F)c(N3CCNC(C)C3)c(F)c21 (stereo not drawn) [Lomefloxacin]
- Mechanism (DNA gyrase), already characterised inhibitors (E. coli DNA gyrase [3]): Fluoroquinolone cleavage-complex stabiliser

Compound: O=C1c2c(O)ccc(O)c2C(=O)c2c(NCCNCCO)ccc(NCCNCCO)c21 [Mitoxantrone]
- Inhibition in gel-based relaxation assay (hit validation) (M. mazei topo VI [1]): found to inhibit M. mazei topo VI
- IC50 (M. mazei topo VI [1]): 2 µM
- Mechanism (Topo VI) (M. mazei topo VI [1]): Prevents cleavage
- Inhibition of growth / antimicrobial activity (E. coli strain NR698): no inhibition of growth
- Induction of gyrase-mediated DNA cleavage (E. coli DNA gyrase [4]; 10 µM): strongly induced DNA cleavage
- Ability to stabilise the gyrase cleavage complex (E. coli DNA gyrase [4]; 100 µM): reduced
- Colony count relative to absence of drug (M. smegmatis mc^2155; 65 μM, grown in liquid media then plated onto drug-free agar): 2%
- Inhibition of growth (M. smegmatis mc^2155; liquid broth / liquid cultures): strongly inhibited the growth; also recorded: found to inhibit the growth
- Inhibition in gel-based supercoiling assay (hit validation) (E. coli DNA gyrase [5]): displayed inhibition
- IC50 (E. coli DNA gyrase [5]; gel supercoiling assay, 1 unit of gyrase (12 nM), read-out: Approx. IC50 against E. coli DNA gyrase): 12 µM
- Mechanism (DNA gyrase) (E. coli DNA gyrase [5]; summary of this study's mechanistic tests): Cleavage-complex stabiliser
- Prevention of ADPNP-induced DNA cleavage by S. shibatae topo VI (S. shibatae topo VI): appeared to prevent ADPNP-induced cleavage
- Outcome in topo VI screen (hit threshold 25% inhibition) [6]: missed during the initial screen
- Inhibition of growth / antimicrobial activity (E. coli MG1655): no inhibition of growth

Compound: COc1c(N2C[C@@H]3CCCN[C@@H]3C2)c(F)cc2c(=O)c(C(=O)O)cn(C3CC3)c12 [Moxifloxacin]
- Mechanism (DNA gyrase), already characterised inhibitors (E. coli DNA gyrase [3]): Fluoroquinolone cleavage-complex stabiliser

Compound: CCn1cc(C(=O)O)c(=O)c2cc(F)c(N3CCNCC3)cc21 [Norfloxacin]
- Mechanism (DNA gyrase), already characterised inhibitors (E. coli DNA gyrase [3]): Fluoroquinolone cleavage-complex stabiliser

Compound: CC1COc2c(N3CCN(C)CC3)c(F)cc3c(=O)c(C(=O)O)cn1c23 (stereo not drawn) [Ofloxacin]
- Mechanism (DNA gyrase), already characterised inhibitors (E. coli DNA gyrase [3]): Fluoroquinolone cleavage-complex stabiliser

Compound: CCn1cc(C(=O)O)c(=O)c2cc(F)c(N3CCN(C)CC3)cc21.CS(=O)(=O)O [Perfloxacine Mesylate]
- Mechanism (DNA gyrase), already characterised inhibitors (E. coli DNA gyrase [3]): Fluoroquinolone cleavage-complex stabiliser

Compound: O=C1c2ccccc2C(=O)c2c(O)c(O)cc(O)c21 [Purpurin]
- Inhibition in gel-based relaxation assay (hit validation) (M. mazei topo VI [1]): validated as hits
- IC50 (M. mazei topo VI [1]): 40 µM
- Mechanism (Topo VI) (M. mazei topo VI [1]): Blocks DNA binding
- Effect on binding of M. mazei topo VI to DNA (M. mazei topo VI [7]): appeared to prevent the binding of topo VI to DNA; also recorded: appeared to prevent G-segment binding
- Prevention of ADPNP-induced DNA cleavage by S. shibatae topo VI (S. shibatae topo VI): marked ability to reduce the amount of cleavage

Compound: CCN(CC)CCCC(C)Nc1c2ccc(Cl)cc2nc2ccc(OC)cc12 (stereo not drawn) [Quinacrine]
- Inhibition in gel-based relaxation assay (hit validation) (M. mazei topo VI [1]): validated as hits
- IC50 (M. mazei topo VI [1]): 8 µM
- Mechanism (Topo VI) (M. mazei topo VI [1]): Prevents DNA cleavage
- Prevention of ADPNP-induced DNA cleavage by S. shibatae topo VI (S. shibatae topo VI): appeared to prevent ADPNP-induced cleavage

Compound: O=C(O)c1cn(-c2ccc(F)cc2)c2cc(N3CCNCC3)c(F)cc2c1=O [Surafloxacin]
- Mechanism (DNA gyrase), already characterised inhibitors (E. coli DNA gyrase [3]): Fluoroquinolone cleavage-complex stabiliser

Compound: CCn1nc(C(=O)O)c(=O)c2cc3c(cc21)OCO3 [cinoxacin]
- Outcome in gyrase screen (hit threshold 25% inhibition) (E. coli DNA gyrase [2]): missed by the screen

Compound: CCn1cc(C(=O)O)c(=O)c2cc(F)c(N3CCNCC3)nc21 [enoxacin]
- Outcome in gyrase screen (hit threshold 25% inhibition) (E. coli DNA gyrase [2]): missed by the screen

Compound: COc1cc(NS(C)(=O)=O)ccc1Nc1c2ccccc2nc2ccccc12 [m-Amsacrine]
- Inhibition in gel-based relaxation assay (hit validation) (M. mazei topo VI [1]): validated as hits
- IC50 (M. mazei topo VI [1]): 30 µM
- Mechanism (Topo VI) (M. mazei topo VI [1]): Prevents DNA cleavage

Compound: CCn1cc(C(=O)O)c(=O)c2ccc(C)nc21 [nalidixic acid]
- Outcome in gyrase screen (hit threshold 25% inhibition) (E. coli DNA gyrase [2]): missed by the screen

Compound: CCn1cc(C(=O)O)c(=O)c2cc3c(cc21)OCO3 [oxolinic acid]
- Outcome in gyrase screen (hit threshold 25% inhibition) (E. coli DNA gyrase [2]): missed by the screen
